Series [1] in a line: Surface activity: surface tension of aqueous solution, Wilhelmy method. The format is physicochemical. As for the experimental part:
(§1) Each of the compounds was mixed with water so that an aqueous solution having a concentration of 1,000 ppm by mass was prepared. By measuring the surface tension of the prepared aqueous solution, the surface activity was evaluated. The surface tension was measured by the Wilhelmy method using an automatic surface tensiometer CBVP-Z manufactured by Kyowa Interface Science Co., LTD. […] Therefore, in Comparative Example 2, the surface tension was measured in the saturated state.

Series [2] can be described thus: Stability in water: decomposition rate from 19F-NMR before and after storage. The format is physicochemical. The settings on record: stored 20 days at 20° C. to 25° C. As for the experimental part:
(§2) Each of the compounds was mixed with water so that an aqueous solution having a concentration of 10% by mass was prepared. The prepared aqueous solution was stored for 20 days in a room adjusted to 20° C. to 25° C. By calculating a decomposition rate of the compound from ^19F—NMR spectra of the compound in the aqueous solution that were obtained before and after the storage, the stability in water was evaluated. The decomposition rate was calculated by the following formula. A compound having a decomposition rate of 3% or less was described as “No decomposition”. […] Therefore, in Comparative Example 2, the stability in water was evaluated in the saturated state. Decomposition rate (%)={1-(integration value of ^19F—NMR spectrum after storage/integration value of ^19F—NMR spectrum before storage)}×100

Series [3] in a line: Dissolution in water when preparing the aqueous test solutions. In kind it is physicochemical. As for the experimental part:
as §1, §2

Series [4] in a line: Surface tension-reducing ability, background comparison with PFOA / PFOS. In kind it is physicochemical. To be noted: study conducted by the inventors.
For series [5] the following is noted: according to Japanese Patent No. 4080998; cited from earlier work.

Molecules are shown by their SMILES.

Regarding `O=S(=O)([N-]S(=O)(=O)C(F)(F)C(F)(F)C(F)(F)C(F)(F)F)C(F)(F)C(F)(F)C(F)(F)C(F)(F)F.[K+]` [Comparative Example 1, bis(perfluorobutanesulfonyl)imide potassium salt], the Surface tension in series [1] (aqueous solution, concentration 1,000 ppm by mass) was 43 mN/m. Besides, the Stability in water entry in series [2] (10% by mass aqueous solution) is “No decomposition (A compound having a decomposition rate of 3% or less was described as “No decomposition”)”.

Consider `O=S(=O)([O-])C(F)(F)C(F)(F)C(F)(F)C(F)(F)C(F)(F)C(F)(F)C(F)(F)C(F)(F)F.[K+]` [Comparative Example 2, potassium salt of perfluorooctanesulfonic acid (PFOS)], for which the Surface tension in series [1] (saturated aqueous solution (not completely dissolved)) is 41 (saturated) mN/m. Also, the Stability in water result in series [2] (saturated aqueous solution) is “No decomposition (A compound having a decomposition rate of 3% or less was described as “No decomposition”)”. Further, the Dissolution in water result in series [3] (mixed with water for 10% by mass) and in series [3] (mixed with water for 1,000 ppm by mass) was “formed a saturated aqueous solution without being completely dissolved in water” in each case.

As to `N.O=S(=O)(NS(=O)(=O)C(F)(F)C(F)(F)C(F)(F)C(F)(F)F)C(F)(F)C(F)(F)C(F)(F)C(F)(F)F` [ammonium bis(perfluorobutanesulfonyl)imide], in series [4], the “Surface tension-reducing ability compared to PFOS” value is given as “lower than that of PFOS”. Further, the “Ability to reduce surface tension compared to ammonium salt of PFOA” value in series [5] is given as “more able to reduce surface tension than the ammonium salt of perfluorooctanoic acid (PFOA)”.

The values above are taken from patent publication US11414381B2, “Fluorinated imide salt compound and surfactant” (Mitsubishi Materials Electronic Chemicals Co., Ltd., priority 2018, dated 2022).
